Patent US8192962B2, “Processes for detecting toxic substances” (Daikin Industries, Ltd., priority 2001, dated 2012)

Test system: Unknown protein yeast genes
Experiment: DNA chip mRNA expression in yeast, unknown protein yeast genes (Table 1)
Assay type: cell-based, Saccharomyces cerevisiae S288C
Method in brief: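 Measured as treated-to-untreated fluorescence ratio on a full-genome yeast DNA chip. Cells (S288C, YPD, 25° C.) were exposed in log phase for two hours to one chemical, dosed to curb growth without killing.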

SMILES: [Cl][Pb][Cl] [(4), PbCl2]
- The level of expressed mRNA in the presence of chemical substance/The level of expressed mRNA in the absence of chemical substance (yeast gene YKL195W, incubated two hours with chemical substance): 1.1
- The level of expressed mRNA in the presence of chemical substance/The level of expressed mRNA in the absence of chemical substance (yeast gene YKR091W, incubated two hours with chemical substance): 3.5
- The level of expressed mRNA in the presence of chemical substance/The level of expressed mRNA in the absence of chemical substance (yeast gene YLR054C, incubated two hours with chemical substance): 2.4
- The level of expressed mRNA in the presence of chemical substance/The level of expressed mRNA in the absence of chemical substance (yeast gene YLR149C, incubated two hours with chemical substance): 2.3
- The level of expressed mRNA in the presence of chemical substance/The level of expressed mRNA in the absence of chemical substance (yeast gene YLR152C, incubated two hours with chemical substance): 0.9
- The level of expressed mRNA in the presence of chemical substance/The level of expressed mRNA in the absence of chemical substance (yeast gene YLR194C, incubated two hours with chemical substance): 3.6
- The level of expressed mRNA in the presence of chemical substance/The level of expressed mRNA in the absence of chemical substance (yeast gene YLR324W, incubated two hours with chemical substance): 1.0
- The level of expressed mRNA in the presence of chemical substance/The level of expressed mRNA in the absence of chemical substance (yeast gene YLR350W, incubated two hours with chemical substance): 2.3
- The level of expressed mRNA in the presence of chemical substance/The level of expressed mRNA in the absence of chemical substance (yeast gene YLR387C, incubated two hours with chemical substance): 0.6
- The level of expressed mRNA in the presence of chemical substance/The level of expressed mRNA in the absence of chemical substance (yeast gene YLR460C): 1.1
- The level of expressed mRNA in the presence of chemical substance/The level of expressed mRNA in the absence of chemical substance (yeast gene YML117W, incubated two hours with chemical substance): 1.6
- The level of expressed mRNA in the presence of chemical substance/The level of expressed mRNA in the absence of chemical substance (yeast gene YMR009W, incubated two hours with chemical substance): 1.9
- The level of expressed mRNA in the presence of chemical substance/The level of expressed mRNA in the absence of chemical substance (yeast gene YMR067C, incubated two hours with chemical substance): 0.4
- The level of expressed mRNA in the presence of chemical substance/The level of expressed mRNA in the absence of chemical substance (yeast gene YMR090W): 3.5
- The level of expressed mRNA in the presence of chemical substance/The level of expressed mRNA in the absence of chemical substance (yeast gene YMR095C, incubated two hours with chemical substance): 1.0
- The level of expressed mRNA in the presence of chemical substance/The level of expressed mRNA in the absence of chemical substance (yeast gene YMR097C, incubated two hours with chemical substance): 1.6
- The level of expressed mRNA in the presence of chemical substance/The level of expressed mRNA in the absence of chemical substance (yeast gene YMR102C, incubated two hours with chemical substance): 0.8
- The level of expressed mRNA in the presence of chemical substance/The level of expressed mRNA in the absence of chemical substance (yeast gene YMR107W, incubated two hours with chemical substance): 18.4
- The level of expressed mRNA in the presence of chemical substance/The level of expressed mRNA in the absence of chemical substance (yeast gene YMR180C, incubated two hours with chemical substance): 1.3
- The level of expressed mRNA in the presence of chemical substance/The level of expressed mRNA in the absence of chemical substance (yeast gene YMR184W, incubated two hours with chemical substance): 1.1
- The level of expressed mRNA in the presence of chemical substance/The level of expressed mRNA in the absence of chemical substance (yeast gene YMR191W, incubated two hours with chemical substance): 1.6
- The level of expressed mRNA in the presence of chemical substance/The level of expressed mRNA in the absence of chemical substance (yeast gene YMR295C, incubated two hours with chemical substance): 1.6
- The level of expressed mRNA in the presence of chemical substance/The level of expressed mRNA in the absence of chemical substance (yeast gene YMR316W, incubated two hours with chemical substance): 1.9
- The level of expressed mRNA in the presence of chemical substance/The level of expressed mRNA in the absence of chemical substance (yeast gene YNL044W, incubated two hours with chemical substance): 1.3
- The level of expressed mRNA in the presence of chemical substance/The level of expressed mRNA in the absence of chemical substance (yeast gene YNL074C, incubated two hours with chemical substance): 1.2
- The level of expressed mRNA in the presence of chemical substance/The level of expressed mRNA in the absence of chemical substance (yeast gene YNL092W, incubated two hours with chemical substance): 1.8
- The level of expressed mRNA in the presence of chemical substance/The level of expressed mRNA in the absence of chemical substance (yeast gene YNL115C, incubated two hours with chemical substance): 1.4
- The level of expressed mRNA in the presence of chemical substance/The level of expressed mRNA in the absence of chemical substance (yeast gene YNL156C, incubated two hours with chemical substance): 1.3
- The level of expressed mRNA in the presence of chemical substance/The level of expressed mRNA in the absence of chemical substance (yeast gene YNL234W, incubated two hours with chemical substance): 1.8
- The level of expressed mRNA in the presence of chemical substance/The level of expressed mRNA in the absence of chemical substance (yeast gene YNL281W, incubated two hours with chemical substance): 1.4
- The level of expressed mRNA in the presence of chemical substance/The level of expressed mRNA in the absence of chemical substance (yeast gene YNL305C, incubated two hours with chemical substance): 1.4
- The level of expressed mRNA in the presence of chemical substance/The level of expressed mRNA in the absence of chemical substance (yeast gene YNR068C, incubated two hours with chemical substance): 2.6
- The level of expressed mRNA in the presence of chemical substance/The level of expressed mRNA in the absence of chemical substance (yeast gene YOL032W, incubated two hours with chemical substance): 1.3
- The level of expressed mRNA in the presence of chemical substance/The level of expressed mRNA in the absence of chemical substance (yeast gene YOL036W, incubated two hours with chemical substance): 0.8
- The level of expressed mRNA in the presence of chemical substance/The level of expressed mRNA in the absence of chemical substance (yeast gene YOL047C, incubated two hours with chemical substance): 2.5
- The level of expressed mRNA in the presence of chemical substance/The level of expressed mRNA in the absence of chemical substance (yeast gene YOL071W, incubated two hours with chemical substance): 2.0
- The level of expressed mRNA in the presence of chemical substance/The level of expressed mRNA in the absence of chemical substance (yeast gene YOL082W, incubated two hours with chemical substance): 2.1
- The level of expressed mRNA in the presence of chemical substance/The level of expressed mRNA in the absence of chemical substance (yeast gene YOL083W, incubated two hours with chemical substance): 2.8
- The level of expressed mRNA in the presence of chemical substance/The level of expressed mRNA in the absence of chemical substance (yeast gene YOL117W, incubated two hours with chemical substance): 1.4
- The level of expressed mRNA in the presence of chemical substance/The level of expressed mRNA in the absence of chemical substance (yeast gene YOL131W, incubated two hours with chemical substance): 1.0
- The level of expressed mRNA in the presence of chemical substance/The level of expressed mRNA in the absence of chemical substance (yeast gene YOL150C): 0.9
- The level of expressed mRNA in the presence of chemical substance/The level of expressed mRNA in the absence of chemical substance (yeast gene YOL162W, incubated two hours with chemical substance): 1.4
- The level of expressed mRNA in the presence of chemical substance/The level of expressed mRNA in the absence of chemical substance (yeast gene YOR019W, incubated two hours with chemical substance): 4.7
- The level of expressed mRNA in the presence of chemical substance/The level of expressed mRNA in the absence of chemical substance (yeast gene YOR197W, incubated two hours with chemical substance): 1.4
- The level of expressed mRNA in the presence of chemical substance/The level of expressed mRNA in the absence of chemical substance (yeast gene YPL087W, incubated two hours with chemical substance): 7.3
- The level of expressed mRNA in the presence of chemical substance/The level of expressed mRNA in the absence of chemical substance (yeast gene YPL196W, incubated two hours with chemical substance): 1.7
- The level of expressed mRNA in the presence of chemical substance/The level of expressed mRNA in the absence of chemical substance (yeast gene YPL206C, incubated two hours with chemical substance): 1.9
- The level of expressed mRNA in the presence of chemical substance/The level of expressed mRNA in the absence of chemical substance (yeast gene YPL222W, incubated two hours with chemical substance): 1.3
- The level of expressed mRNA in the presence of chemical substance/The level of expressed mRNA in the absence of chemical substance (yeast gene YPR023C, incubated two hours with chemical substance): 0.8
- The level of expressed mRNA in the presence of chemical substance/The level of expressed mRNA in the absence of chemical substance (yeast gene YPR151C, incubated two hours with chemical substance): 4.1
